Measured values: US9125407B2, “Compositions comprising an aryl pyrazole and a substituted imidazole, methods and uses thereof” (MERIAL LIMITED, priority 2011, dated 2015)

How the values were obtained:
Rhipicephalus sanguineus [1] = test: Tick contact behavioral assay (TCBA), excitatory response in glass vials; conditions: 24 h post-treatment
Description: Another screening method used to test compounds of the present invention is the tick contact behavioral assay (TCBA). Compounds that elicit excitatory activity in ticks should increase their motility, thus increasing the parasite's chances of encountering fipronil if fipronil is present.
The TCBA was performed on Rhipicephalus sanguineus in glass vials. Briefly, a paper disc is treated with the desired amount of test compound and placed into the vial with approximately ten ticks. The ticks are observed for excitatory response but are not otherwise stimulated for evaluation.
From these observations, an EC50 for excitatory response is established. Observations were made at 4 h and 24 h post-treatment. […]

Rhipicephalus sanguineus [2] = test: Tick mortality in combination with fipronil (25 ppm), 100% mortality at 6 hours; conditions: dose of compound combined with fipronil 25 ppm producing 100% mortality in 6 hours
Description: Observations were made at 4 h and 24 h post-treatment.
The compounds were then combined with fipronil (25 ppm) and tested for 100% mortality at 6 hours.

[3] = pH about 5.0 to about 6.0; cited from earlier work
[4] = 14C radiolabeled drug, spot-on, beagle dogs; cited from earlier work

SMILES | TCBA Assay EC50 (@ 24 h, ppm) (Rhipicephalus sanguineus [1]) [ppm] | Fipronil combination (25 ppm) (6 h mortality) Dose (ppm) (Rhipicephalus sanguineus [2]) | stability at pH of about 5.0 to about 6.0 [3] | time persistently detected in whole skin after treatment [4]
Cc1cccc2c1CCC2c1ncc[nH]1 (centres unmarked) [ML-449, 1H-imidazole, 2-(2,3-dihydro-4-methyl-1H-inden-1-yl)] | 6 | 25 | – | –
Cc1ccc(/N=C/N(C)/C=N/c2ccc(C)cc2C)c(C)c1 [Amitraz, amitraz] | 1.6 | 12.5 | degrade | –
Cc1cccc2c1C(c1ncc[nH]1)CC2 (centres unmarked) [1H-imidazole, 2-(2,3-dihydro-7-methyl-1H-inden-1-yl)] | 6 | – | – | –
N#Cc1nn(-c2c(Cl)cc(C(F)(F)F)cc2Cl)c(N)c1[S+]([O-])C(F)(F)F (centres unmarked) [fipronil, 5-amino-3-cyano-1-(2,6-dichloro-4-trifluoromethylphenyl)-4-trifluoromethylsulfinylpyrazole] | – | – | – | up to 56 days
Cc1cccc2c1CCCC2c1ncc[nH]1 (centres unmarked) [2-(5-methyl-1,2,3,4-tetrahydronaphthalen-1-yl)-1H-imidazole] | 6 | 25 | – | –
Cc1cccc(C(C)c2ncc[nH]2)c1C (centres unmarked) [demiditraz] | 5 | 12.5 | – | –
